Data taken from the supplement of paper PMC11208160.

experiment: recombinant UMI read abundance after kanamycin selection (control-corrected) (log10(CPM+1)); higher = more efficient recombination; extreme values may be limits of the assay; sequences stand for … in AGTGCAGAGAAAATCGGCCAGTTTTCTCTGCCTGCAGTCCGCATGCCGTGGGACCCCTTGGGTTCTAACCTGTTGCCTAGATTTATGCAGCGGACTGCCTTTCTCCCAAAGTGATAAACCGG…AGGTTGGTTTCACT; site = the 11-nt donor
Procedure, shortened: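 Under IPTG (0.07 mM) plus kanamycin, or without selection, Escherichia coli carrying a UMI-tagged donor and donor-binding-loop pair library and a target plasmid for the IS621 bridge recombinase were plated in two replicates. Recombinant UMIs were PCR-amplified across the donor–target junction and sequenced. Counts were converted to CPM, averaged over replicates, scaled by control-derived factors and reported as log10(CPM+1).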
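Also: IS621 bridge recombinase in Escherichia coli cells against a fixed T5 target plasmid.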

First: CCCTTCTCATGGACCGGTTTTCCCGGTAATCCGTATTTGTG (site CCCTTCTCTCG)
Second: CCCTTCTCATGGACCGGTTTTCCCGGTAATCCGTATTTGTG (site CCCTTCTCTCT)
The “recombinant UMI read abundance (log10)” value of the first is higher: 0.995 for the first, 0.00643 for the second.

“CCCTTTTCATGGACCGGTTTTCCCGGTAATCCGTATTTGGG (site CCCTTATCTCC)” and “CCCTTTTCATGGACCGGTTTTCCCGGTAATCCGTATTTGGG (site CCCTTCTCTCC)” are within 0.2 log units of each other in “recombinant UMI read abundance (log10)” value: 0.00602 for the first, 0.0124 for the second.

“CCCTTTTCATGGACCGGTTTTCCCGGTAATCCGTATTTGGG (site CCCTTGTCTCC)” and “CCCTTTTCATGGACCGGTTTTCCCGGTAATCCGTATTTGGG (site CCCTTTTCTCC)” are within 0.2 log units of each other in “recombinant UMI read abundance (log10)” value: 0.0108 for the first, 0 for the second.

“CCGAAGCCATGGACCGGTTTTCCCGGTAATCCGTATTTGGG (site ACGAAGCCTCC)” and “CCGAAGCCATGGACCGGTTTTCCCGGTAATCCGTATTTGGG (site CCGAAGCCTCC)” are within 0.2 log units of each other in “recombinant UMI read abundance (log10)” value: 0.0168 for the first, 0.0077 for the second.

“CCGAAGCCATGGACCGGTTTTCCCGGTAATCCGTATTTGGG (site GCGAAGCCTCC)” and “CCGAAGCCATGGACCGGTTTTCCCGGTAATCCGTATTTGGG (site TCGAAGCCTCC)” are within 0.2 log units of each other in “recombinant UMI read abundance (log10)” value: 0.0226 for the first, 0.0139 for the second.

Compared with “CCGAGTTCATGGACCGGTTTTCCCGGTAATCCGTATTTGTT (site CCGAGTTCTAA)”, “CCGCCCGCATGGACCGGTTTTCCCGGTAATCCGTATTTGTA (site CCGCCCGCTTA)” is higher in “recombinant UMI read abundance (log10)” value: 0.501 for the first, 1.02 for the second.

“CCGGAACCATGGACCGGTTTTCCCGGTAATCCGTATTTGAT (site CAGGAACCTAT)” and “CCGGAACCATGGACCGGTTTTCCCGGTAATCCGTATTTGAT (site CCGGAACCTAT)” are the same in “recombinant UMI read abundance (log10)” value: 0 for the first, 0 for the second.

“CCGGAACCATGGACCGGTTTTCCCGGTAATCCGTATTTGAT (site CGGGAACCTAT)” and “CCGGAACCATGGACCGGTTTTCCCGGTAATCCGTATTTGAT (site CTGGAACCTAT)” are within 0.2 log units of each other in “recombinant UMI read abundance (log10)” value: 0 for the first, 0.00208 for the second.

“CCGGGACCATGGACCGGTTTTCCCGGTAATCCGTATTTGAG (site CCGGGACCTCT)” and “CCGGGCCCATGGACCGGTTTTCCCGGTAATCCGTATTTGTA (site CCGGGCCCTTA)” are within 0.2 log units of each other in “recombinant UMI read abundance (log10)” value: 0 for the first, 0.0269 for the second.

Going from “CCGTAATCATGGACCGGTTTTCCCGGTAATCCGTATTTGCG (site CCGTAATCTCG)” to “CCGTATACATGGACCGGTTTTCCCGGTAATCCGTATTTGAT (site CCGTATACTAT)”, the “recombinant UMI read abundance (log10)” value falls from 1.7 to 0.449.

Compared with “CCGTCATCATGGACCGGTTTTCCCGGTAATCCGTATTTGAT (site CCGTCATCTAT)”, “CCGTCTGCATGGACCGGTTTTCCCGGTAATCCGTATTTGCT (site CCGTCTGCTAG)” is higher in “recombinant UMI read abundance (log10)” value: 0.00671 for the first, 0.241 for the second.

“CCGTGTACATGGACCGGTTTTCCCGGTAATCCGTATTTGCT (site CCGTATACTAG)” and “CCGTGTACATGGACCGGTTTTCCCGGTAATCCGTATTTGCT (site CCGTCTACTAG)” are within 0.2 log units of each other in “recombinant UMI read abundance (log10)” value: 0.0403 for the first, 0.00869 for the second.

Compared with “CCGTGTACATGGACCGGTTTTCCCGGTAATCCGTATTTGCT (site CCGTGTACTAG)”, “CCGTGTACATGGACCGGTTTTCCCGGTAATCCGTATTTGCT (site CCGTTTACTAG)” is lower in “recombinant UMI read abundance (log10)” value: 0.439 for the first, 0 for the second.

First: CCGTGTGCATGGACCGGTTTTCCCGGTAATCCGTATTTGAC (site CCGTGTGCTGT)
Second: CCGTTAACATGGACCGGTTTTCCCGGTAATCCGTATTTGTG (site CCGTTAACTCA)
The “recombinant UMI read abundance (log10)” value of the first is higher: 1 for the first, 0.0455 for the second.

“CCGTTAACATGGACCGGTTTTCCCGGTAATCCGTATTTGTG (site CCGTTACCTCA)” and “CCGTTAACATGGACCGGTTTTCCCGGTAATCCGTATTTGTG (site CCGTTAGCTCA)” are within 0.2 log units of each other in “recombinant UMI read abundance (log10)” value: 0.0226 for the first, 0.182 for the second.

“CCGTTAACATGGACCGGTTTTCCCGGTAATCCGTATTTGTG (site CCGTTATCTCA)” and “CCGTTAGCATGGACCGGTTTTCCCGGTAATCCGTATTTGGG (site CCGTTAGCTCA)” are within 0.2 log units of each other in “recombinant UMI read abundance (log10)” value: 0.00955 for the first, 0.0109 for the second.

“CCGTTAGCATGGACCGGTTTTCCCGGTAATCCGTATTTGGG (site CCGTTAGCTCC)” and “CCGTTAGCATGGACCGGTTTTCCCGGTAATCCGTATTTGGG (site CCGTTAGCTCG)” are within 0.2 log units of each other in “recombinant UMI read abundance (log10)” value: 0.00956 for the first, 0 for the second.

“CCGTTAGCATGGACCGGTTTTCCCGGTAATCCGTATTTGGG (site CCGTTAGCTCT)” and “CCGTTTACATGGACCGGTTTTCCCGGTAATCCGTATTTGCT (site ACGTTTACTAG)” are the same in “recombinant UMI read abundance (log10)” value: 0 for the first, 0 for the second.

“CCGTTTACATGGACCGGTTTTCCCGGTAATCCGTATTTGCT (site CAGTTTACTAG)” and “CCGTTTACATGGACCGGTTTTCCCGGTAATCCGTATTTGCT (site CCATTTACTAG)” are the same in “recombinant UMI read abundance (log10)” value: 0 for the first, 0 for the second.

“CCGTTTACATGGACCGGTTTTCCCGGTAATCCGTATTTGCT (site CCCTTTACTAG)” and “CCGTTTACATGGACCGGTTTTCCCGGTAATCCGTATTTGCT (site CCGATTACTAG)” are the same in “recombinant UMI read abundance (log10)” value: 0 for the first, 0 for the second.

“CCGTTTACATGGACCGGTTTTCCCGGTAATCCGTATTTGCT (site CCGCTTACTAG)” and “CCGTTTACATGGACCGGTTTTCCCGGTAATCCGTATTTGCT (site CCGGTTACTAG)” are the same in “recombinant UMI read abundance (log10)” value: 0 for the first, 0 for the second.

“CCGTTTACATGGACCGGTTTTCCCGGTAATCCGTATTTGCT (site CCGTATACTAG)” and “CCGTTTACATGGACCGGTTTTCCCGGTAATCCGTATTTGCT (site CCGTCTACTAG)” are the same in “recombinant UMI read abundance (log10)” value: 0 for the first, 0 for the second.

“CCGTTTACATGGACCGGTTTTCCCGGTAATCCGTATTTGCT (site CCGTGTACTAG)” and “CCGTTTACATGGACCGGTTTTCCCGGTAATCCGTATTTGCT (site CCGTTAACTAG)” are the same in “recombinant UMI read abundance (log10)” value: 0 for the first, 0 for the second.

“CCGTTTACATGGACCGGTTTTCCCGGTAATCCGTATTTGCT (site CCGTTCACTAG)” and “CCGTTTACATGGACCGGTTTTCCCGGTAATCCGTATTTGCT (site CCGTTGACTAG)” are within 0.2 log units of each other in “recombinant UMI read abundance (log10)” value: 0.00422 for the first, 0 for the second.

“CCGTTTACATGGACCGGTTTTCCCGGTAATCCGTATTTGCT (site CCGTTTACTAA)” and “CCGTTTACATGGACCGGTTTTCCCGGTAATCCGTATTTGCT (site CCGTTTACTAC)” are the same in “recombinant UMI read abundance (log10)” value: 0 for the first, 0 for the second.

“CCGTTTACATGGACCGGTTTTCCCGGTAATCCGTATTTGCT (site CCGTTTACTAG)” and “CCGTTTACATGGACCGGTTTTCCCGGTAATCCGTATTTGCT (site CCGTTTACTAT)” are the same in “recombinant UMI read abundance (log10)” value: 0 for the first, 0 for the second.

“CCGTTTACATGGACCGGTTTTCCCGGTAATCCGTATTTGCT (site CCGTTTACTCG)” and “CCGTTTACATGGACCGGTTTTCCCGGTAATCCGTATTTGCT (site CCGTTTACTGG)” are the same in “recombinant UMI read abundance (log10)” value: 0 for the first, 0 for the second.

“CCGTTTACATGGACCGGTTTTCCCGGTAATCCGTATTTGCT (site CCGTTTACTTG)” and “CCGTTTACATGGACCGGTTTTCCCGGTAATCCGTATTTGCT (site CCGTTTCCTAG)” are the same in “recombinant UMI read abundance (log10)” value: 0 for the first, 0 for the second.

“CCGTTTACATGGACCGGTTTTCCCGGTAATCCGTATTTGCT (site CCGTTTGCTAG)” and “CCGTTTACATGGACCGGTTTTCCCGGTAATCCGTATTTGCT (site CCGTTTTCTAG)” are within 0.2 log units of each other in “recombinant UMI read abundance (log10)” value: 0.00881 for the first, 0 for the second.

“CCGTTTACATGGACCGGTTTTCCCGGTAATCCGTATTTGCT (site CCTTTTACTAG)” and “CCGTTTACATGGACCGGTTTTCCCGGTAATCCGTATTTGCT (site CGGTTTACTAG)” are the same in “recombinant UMI read abundance (log10)” value: 0 for the first, 0 for the second.

“CCGTTTACATGGACCGGTTTTCCCGGTAATCCGTATTTGCT (site CTGTTTACTAG)” and “CCGTTTACATGGACCGGTTTTCCCGGTAATCCGTATTTGCT (site GCGTTTACTAG)” are the same in “recombinant UMI read abundance (log10)” value: 0 for the first, 0 for the second.

“CCGTTTACATGGACCGGTTTTCCCGGTAATCCGTATTTGCT (site TCGTTTACTAG)” and “CCGTTTCCATGGACCGGTTTTCCCGGTAATCCGTATTTGCT (site CCGTTTACTAG)” are the same in “recombinant UMI read abundance (log10)” value: 0 for the first, 0 for the second.

“CCGTTTCCATGGACCGGTTTTCCCGGTAATCCGTATTTGCT (site CCGTTTCCTAG)” and “CCGTTTCCATGGACCGGTTTTCCCGGTAATCCGTATTTGCT (site CCGTTTGCTAG)” are the same in “recombinant UMI read abundance (log10)” value: 0 for the first, 0 for the second.

“CCGTTTCCATGGACCGGTTTTCCCGGTAATCCGTATTTGCT (site CCGTTTTCTAG)” and “CCTAAAACATGGACCGGTTTTCCCGGTAATCCGTATTTGAT (site CCTAAAACTAT)” are the same in “recombinant UMI read abundance (log10)” value: 0 for the first, 0 for the second.
